Reference: US20060069132A1, “Azolecarboxamide herbicides” (priority 2004, published 2006)

Legend:
Test in all cases: Test E pre-/postemergence herbicide test
[1] = tested on: barnyardgrass; format: in vivo, Echinochloa crus-galli
Source text: (§1) Seeds of plant species selected from bipinnate beggarticks (Bidens bipinnata L.), hairy beggarticks (Bidens radiata Thuill.), bermudagrass (Cynodon dactylon (L.) Pers.), Surinam grass (Urochloa decumbens (Staph) R. D. Webster, previously named Brachiaria decumbens Stapf), large crabgrass (Digitaria sanguinalis (L.) Scop.), green foxtail (Setaria viridis (L.) P. Beauv.), goosegrass (Eleusine indica (L.) Gaertn.), johnsongrass (Sorghum halepense (L.) Pers.), kochia (Kochia scoparia (L.) Schrad.), pitted morningglory (Ipomoea lacunosa L.), purple nutsedge (Cyperus rotundus L.), common ragweed (Ambrosia elatior L.), mustard (Brassica nigra (L.) W. D. J. Koch), guineagrass (Panicum maximum Jacq.), dallisgrass (Paspalum dilatatum Poir.), barnyardgrass (Echinochloa crus-galli (L). P. Beauv.), southern sandbur (Cenchrus echinatus L.), common sowthistle (Sonchus oleraceous L.), prickly sida (Sida spinosa L.), Italian ryegrass (Lolium multiflorum Lam.), common purslane (Portulaca oleracea L.), broadleaf signalgrass (Brachiaria platyphylla (Griseb.) Nash), common groundsel (Senecio vulgaris L.), common chickweed (Stellaria media (L.) Vill/Cyr.), tropical spiderwort (Commelina benghalensis L.), annual bluegrass (Poa annua L.), downy bromegrass (Bromus tectorum L.), itchgrass (Rottboellia cochinchinensis (L.) L.f.), quackgrass (Elytrigia repens (L.) Nevski), Canada horseweed (Erigeron Canadensis L.), field bindweed (Convolvulus arvensis L.), spotted spurge (Euphorbia maculata L.), common mallow (Malva sylvestris (=s silvestris) L.), and Russian thistle (Salsola kali L. ssp. Ruthenica (Iljin) Soo) were planted and treated preemergence with test chemicals formulated in a non-phytotoxic solvent mixture which included a surfactant.
(§2) At the same time, plants selected from these weed species were treated with postemergence applications of some of the test chemicals formulated in the same manner. Plants ranged in height from 2 to 18 cm (1- to 4-leaf stage) for postemergence treatments. Treated plants and controls were maintained in a greenhouse for 12 to 14 days, after which time all species were compared to controls and visually evaluated. Plant response ratings, summarized in Table E, are based on a scale of 0 to 100 where 0 is no effect and 100 is complete control. A dash (-) response means no test result.

[2] = tested on: downy bromegrass; format: in vivo, Bromus tectorum
Source text: as §1, §2

[3] = tested on: itchgrass; format: in vivo, Rottboellia cochinchinensis
Source text: as §1, §2

[4] = tested on: common mallow; format: in vivo, Malva sylvestris
Source text: as §1, §2

[5] = tested on: prickly sida; format: in vivo, Sida spinosa
Source text: as §1, §2

[6] = Postemergence, 500 g ai/ha, scale 0 to 100
[7] = Postemergence, 250 g ai/ha, scale 0 to 100
[8] = Preemergence, 62 g ai/ha, scale 0 to 100
[9] = Preemergence, 125 g ai/ha, scale 0 (no effect) to 100 (complete control)
[10] = Preemergence, 250 g ai/ha, scale 0 (no effect) to 100 (complete control)
[11] = Preemergence, 500 g ai/ha, scale 0 (no effect) to 100 (complete control)
[12] = postemergence, 125 g ai/ha, scale 0 to 100
[13] = postemergence, 62 g ai/ha, scale 0 to 100
[14] = Preemergence, 125 g ai/ha, scale 0 to 100

SMILES	Plant response rating, Barnyardgrass [1, 6]	Plant response rating, Barnyardgrass [1, 7]	Plant response rating, Barnyardgrass [1, 8]	Plant response rating, Barnyardgrass [1, 10]	Plant response rating, Barnyardgrass [1, 11]	Plant response rating, Barnyardgrass [1, 12]	Plant response rating, Bromegrass, Downy [2, 6]	Plant response rating, Bromegrass, Downy [2, 7]	Plant response rating, Bromegrass, Downy [2, 8]	Plant response rating, Bromegrass, Downy [2, 10]	Plant response rating, Bromegrass, Downy [2, 11]	Plant response rating, Itchgrass [3, 6]	Plant response rating, Itchgrass [3, 7]	Plant response rating, Itchgrass [3, 8]	Plant response rating, Itchgrass [3, 11]	Plant response rating, Itchgrass [3, 12]	Plant response rating, Mallow [4, 6]	Plant response rating, Mallow [4, 7]	Plant response rating, Mallow [4, 8]	Plant response rating, Mallow [4, 11]	also measured
CCn1nc(C(C)(C)C)cc1C(=O)Nc1cc(C(=O)N(C)C)ccc1F [Compound 6, N-[5-[(dimethylamino)carbonyl]-2-fluorophenyl]-3-(1,1-dimethylethyl)-1-ethyl-1H-pyrazole-5-carboxamide]	98	95	90	95	100	90	100	100	90	95	100	95	95	90	95	90	100	100	70	100	Plant response rating, Barnyardgrass [1, 9]: 95; Plant response rating, Barnyardgrass [1, 13]: 80; Plant response rating, Bromegrass, Downy [2, 9]: 95; Plant response rating, Bromegrass, Downy [2, 12]: 98; Plant response rating, Bromegrass, Downy [2, 13]: 95; Plant response rating, Itchgrass [3, 9]: 95; Plant response rating, Itchgrass [3, 13]: 90; Plant response rating, Mallow [4, 9]: 100; Plant response rating, Mallow [4, 12]: 95; Plant response rating, Mallow [4, 13]: 65
CCNC(=O)c1ccnc(NC(=O)c2cc(C(C)(C)C)nn2CC)c1 [Compound 152]	75	75	60	85	90	50	80	75	0	60	90	75	75	20	80	60	50	50	40	90	Plant response rating, Barnyardgrass [1, 14]: 75; Plant response rating, Prickly Sida [5, 6]: 85; Plant response rating, Prickly Sida [5, 7]: 60; Plant response rating, Prickly Sida [5, 8]: 20; Plant response rating, Prickly Sida [5, 14]: 20; Plant response rating, Prickly Sida [5, 10]: 60; Plant response rating, Prickly Sida [5, 11]: 95; Plant response rating, Bromegrass, Downy [2, 14]: 30; Plant response rating, Itchgrass [3, 14]: 60; Plant response rating, Itchgrass [3, 10]: 75; Plant response rating, Mallow [4, 14]: 80; Plant response rating, Mallow [4, 10]: 90
